# Measured values as given in patent US8933016B2, “Metallodrugs having improved pharmacological properties and methods of manufacture and use thereof” (priority 2012, dated 2015).
# Where two headings read alike, the source gives them in different places. Ends that are not written are not given here. Peptide text beside a SMILES is read from it. * marks the point of attachment. X2 = COCCOCCOCCOCCOCCOCCOCCOCCOCCOCCOCCOCCOCCOCCOCCOCCOCCOCCOCCOCCOCCOCCOCCOCCNC(=O)CCN1C(=O)CC(*)C1=O; X1 = COCCOCCOCCOCCOCCOCCOCCOCCOCCOCCOCCOCCNC(=O)CCN1C(=O)CC(*)C1=O
# Legend:
# [1] = system: MRSA, 43300; details: Mueller Hinton Broth
# [2] = system: E. coli O157:H7, BAA-1883 (Ec F)
# [3] = Cytotoxicity toward human Huh7 liver cells
# [4] = system: S. pneumoniae, 49619 (Sp)
# [5] = system: E. coli, 25922 (Ec)
# [6] = system: K. pneumonia, 700603 (Kp); type: cell-based; details: Mueller Hinton Broth
# [7] = system: E. faecium, 700221 (Ef); details: Mueller Hinton Broth
# [8] = system: A. baumanii, BAA-747 (Ab)
# [9] = system: P. aeuginosa, 27583 (Pa)
# [10] = system: H. influenzae, 49247 (Hi)
# [11] = in vitro; details: human
# [12] = system: S. aureus, 29213 (Sa)
# [13] = system: E. coli (ATCC 25922); assay: Protein oxidation, quantitation of protein carbonyls in E. coli; type: cell-based; details: 100 mM
# [14] = system: B. cepacia, 25416 (Bc)
molecule,measurement,setting,value
GGHGEYVLRNWRIVKVATTKAC [PEP 193],MIC MRSA,[1],13 µM
CC[C@H](C)[C@H](NC(=O)[C@H](CCCCN)NC(=O)[C@H](Cc1c[nH]c2ccccc12)NC(=O)[C@H](CCCNC(=N)N)NC(=O)[C@H](CCCNC(=N)N)NC(=O)[C@H](Cc1c[nH]cn1)NC(=O)CNC(=O)CN)C(=O)N[C@H](C(=O)N[C@H](C(=O)N[C@H](C(=O)N[C@@H](CCCNC(=N)N)C(=O)N[C@@H](Cc1c[nH]c2ccccc12)C(=O)N[C@@H](CCCNC(=N)N)C(=O)N[C@@H](CCCNC(=N)N)C(=O)NCC(=O)NCC(=O)N[C@@H](CSC1CC(=O)N(CCC(=O)NCCOCCOCCOCCOCCOCCOCCOCCOCCOCCOCCOCCOCCOCCOCCOCCOCCOCCOCCOCCOCCOCCOCCOCCOC)C1=O)C(=O)O)[C@@H](C)CC)C(C)C)C(C)C (stereo partly shown) [PEP 314 PEG 24] (H-GGHRRWKIVVIRWRRGGC(X2)-OH; C-terminus assumed),MIC Ec F,[2]; O157:H7,9.3 µM
same,IC50,[3],> 200 µM
same,MIC Sp,[4]; 49619 (Sp),4.7 µM
"GGHGWRWYCR [PEP 204, GGHGWRWYCR]",MIC Ec F,[2]; Mueller Hinton Broth,50 µM
same,MIC Ec,[5]; Mueller Hinton Broth,3.1 µM
same,MIC Kp,[6],4.7 µM
same,MIC Ef,[7],25.1 µM
same,MIC Ab,[8]; Mueller Hinton Broth,25.1 µM
same,MIC MRSA,[1],6.3 µM
same,MIC Pa,[9]; Mueller Hinton Broth,25 µM
"GGHGRRWKIVVIRWRRGGC [PEP 321, GGHGRRWKIVVIRWRRGGC]",MIC Hi,[10],14.2 µM
same,MIC Ec F,[2]; Mueller Hinton Broth,14.2 µM
same,MIC Kp,[6],14.2 µM
same,MIC Ef,[7],7.1 µM
same,MIC Ab,[8]; Mueller Hinton Broth,28.4 µM
same,MIC MRSA,[1],14.2 µM
same,MIC Sp,[4]; Mueller Hinton Broth,1.8 µM
"CC[C@H](C)[C@H](NC(=O)[C@H](Cc1c[nH]cn1)NC(=O)CNC(=O)CN)C(=O)N[C@@H](CC(C)C)C(=O)N1CCC[C@H]1C(=O)N[C@@H](Cc1c[nH]c2ccccc12)C(=O)N[C@@H](CCCCN)C(=O)N[C@@H](Cc1c[nH]c2ccccc12)C(=O)N1CCC[C@H]1C(=O)N[C@@H](Cc1c[nH]c2ccccc12)C(=O)N[C@@H](Cc1c[nH]c2ccccc12)C(=O)N1CCC[C@H]1C(=O)N[C@@H](Cc1c[nH]c2ccccc12)C(=O)N[C@@H](CCCNC(=N)N)C(=O)N[C@@H](CCCNC(=N)N)C(=O)NCC(=O)NCC(=O)N[C@@H](CS)C(=O)O [PEP 316, GGHILPWKWPWWPWRRGGC]",MIC Hi,[10],13.5 µM
"GGHGWRWYCRGGK [PEP 323, GGHGWRWYCRGGK]",MIC Hi,[10],1.5 µM
same,MIC Ec,[5]; 25922 (Ec),20.9 µM
same,MIC Kp,[6],20.9 µM
same,MIC Ab,[8]; BAA-747,20.9 µM
same,MIC Pa,[9],20.9 µM
GGHIRRIIRKIIHIIKKGGC [PEP 318],MIC Ec,[5]; 25922 (Ec),7 µM
same,MIC Kp,[6],28.2 µM
same,MIC Ab,[8]; BAA-747,7 µM
same,IC50,[11],41 µM
same,MIC Sp,[4]; 49619 (Sp),3.5 µM
same,MIC Sa,[12]; 29213 (Sa),14.1 µM
same,MIC Pa,[9],28.2 µM
"OO [H2O2, Hydrogen Peroxide]",Protein Carbonyls (nmol/mg protein),[13]; 2 hours (PEP 188 table),0.87 nmol/mg protein
same,Protein Carbonyls (nmol/mg protein),"[13]; 2 hours, average of 2 separate experiments (PEP 189 table)",0.44 nmol/mg protein
"GGHTRQARRNRR [PEP 205, GGHTRQARRNRR]",MIC Pa,[9],43.7 µM
"GGHWRWYCRGGK [PEP 322, GGHWRWYCRGGK]",MIC Hi,[10],2.7 µM
same,MIC Kp,[6],7.6 µM
GGHGIRRIIRKIIHIIKKGGC [PEP 311],MIC Hi,[10],31.7 µM
same,MIC Ec F,[2]; Mueller Hinton Broth,4 µM
same,MIC Ec,[5]; Mueller Hinton Broth,7.9 µM
same,MIC Kp,[6],7.9 µM
same,MIC Ef,[7],4 µM
same,MIC Ab,[8]; Mueller Hinton Broth,2 µM
same,MIC Sp,[4]; Mueller Hinton Broth,15.8 µM
same,MIC Sa,[12]; Mueller Hinton Broth,7.9 µM
same,MIC Pa,[9]; Mueller Hinton Broth,15.8 µM
CC[C@H](C)[C@H](NC(=O)[C@H](Cc1c[nH]cn1)NC(=O)CNC(=O)CN)C(=O)N[C@@H](CCCNC(=N)N)C(=O)N[C@@H](CCCNC(=N)N)C(=O)N[C@H](C(=O)N[C@H](C(=O)N[C@@H](CCCNC(=N)N)C(=O)N[C@@H](CCCCN)C(=O)N[C@H](C(=O)N[C@H](C(=O)N[C@@H](Cc1c[nH]cn1)C(=O)N[C@H](C(=O)N[C@H](C(=O)N[C@@H](CCCCN)C(=O)N[C@@H](CCCCN)C(=O)NCC(=O)NCC(=O)N[C@@H](CSC1CC(=O)N(CCC(=O)NCCOCCOCCOCCOCCOCCOCCOCCOCCOCCOCCOCCOC)C1=O)C(=O)O)[C@@H](C)CC)[C@@H](C)CC)[C@@H](C)CC)[C@@H](C)CC)[C@@H](C)CC)[C@@H](C)CC (stereo partly shown) [PEP 318 PEG 12] (H-GGHIRRIIRKIIHIIKKGGC(X1)-OH; C-terminus assumed),MIC Hi,[10],2.7 µM
same,MIC Ec F,[2]; O157:H7,5.4 µM
same,MIC Bc,[14],2.7 µM
same,MIC Ec,[5]; 25922 (Ec),10.7 µM
same,MIC Kp,[6],21.4 µM
same,MIC Ab,[8]; BAA-747,5.4 µM
same,IC50,[3],150 µM
same,MIC Sp,[4]; 49619 (Sp),5.4 µM
"GGHRRWKIVVIRWRRGGC [PEP 314, GGHRRWKIVVIRWRRGGC]",MIC Hi,[10],3.7 µM
same,MIC Ec,[5]; 25922 (Ec),14.6 µM
same,MIC Kp,[6],14.6 µM
same,MIC Ab,[8]; BAA-747,7.3 µM
same,IC50,[11],17 µM
same,MIC Sp,[4]; 49619 (Sp),0.9 µM
same,MIC Sa,[12]; 29213 (Sa),29.2 µM
same,MIC Pa,[9],14.6 µM
DOTA-Ampicillin [DOTAMP],MIC Ec F,[2]; Mueller Hinton Broth,42.5 µM
same,MIC Ec,[5]; Mueller Hinton Broth,42.5 µM
same,MIC MRSA,[1],42.5 µM
